Data as given in patent US20210300981A1, “COMPOSITIONS AND METHODS FOR COMBATING MULTIDRUG-RESISTANT BACTERIA” (University of Virginia Patent Foundation, priority 2018, published 2021).
Where a SMILES comes first, the peptide text is derived from it. Where no end group is shown, it is not given here. [ ]: non-standard residue; d: D form. ξ: configuration not given here. ξαMeGly(pent-4-enyl) = C=CCCCC(C)(N)C(=O)O

Assays:
MRSA = conditions: 2 h, 11.2 μM
[1] = assay media, higher concentrations
N. gonorrhoeae = conditions: 2 h, 22.4 μM
MDR Enterobacter cloacae = conditions: 2 h, 16.8 μM
MDR S. Typhi [2] = conditions: 2 h, 2.8 μM
CRE K. pneumoniae [3] = test system: CRE K. pneumoniae
VRE = conditions: 2 h, 11.2 μM
MDR A. baumannii = conditions: 2 h, 1.4 μM
MDR P. aeruginosa = conditions: 2 h, 5.6 μM
B. anthracis = conditions: 2 h, 22.4 μM
CRE K. pneumoniae [4] = assay type: cell-based, Klebsiella pneumoniae; conditions: for function of alanine scan variants: 2 hours (FIGS. 21, 22); for bactericidal activity versus negative control Peptide P5: 2.5×10^5 cfu/ml
[5] = Truncation of Peptide P9, retention of activity; conditions: first 6 amino acids removed
Text: In some embodiments, alanine scans are available for […] (SEQ ID NO: 11). The alanine scan was used to modify the malleable position 8 and to make a conservative substitution at alanine residue 12 with an alkenyl derivative of alanine, namely, 2-(4-pentenyl)alanine, and then the alkene groups at positions 8 and 12 were coupled/stapled. Thus, a modified peptide in accordance with the presently disclosed subject matter includes a coupled peptide or a stapled peptide. […] Further, the first 6 amino acids present in […] (SEQ ID NO: 11) can be removed one by one while still retaining activity; removing all 6 gives KNLLKAVSKERSKRSP (SEQ ID NO: 12). Further truncations are also provided, including from the other end (such as the two end residues based on the alanine scan).

MDR S. Typhi [6] = assay type: cell-based, Salmonella enterica serovar Typhi; conditions: 50 μM, RPMI/HEPES, 2.5×10^5 cfu/ml
CD45+/CD3+ T lymphocytes = experiment: Host-targeted bioregulatory effects: in vivo recruitment/infiltration of T lymphocytes; design: species or system C57BL/6 mice; conditions: as stated in the sequence description; FIG. 12
[7] = test system: B. anthracis Sterne strain 7702 spores; assay type: cell-based, Bacillus anthracis; conditions: 50 μM, RPMI/HEPES+2% FBS, 3 hours post-treatment, 1.0×10^7 cfu/ml spores
trypsin protease = experiment: Resistance to proteolytic degradation (trypsin pretreatment, read out by killing of CRE K. pneumoniae); conditions: trypsin 200:1 molar ratio, 2 hours, 50 mM Tris-HCl + 20 mM CaCl2
K. pneumoniae ATCC 43816 = experiment: Full-thickness wound infection model; assay type: in vivo, C57BL/6 mice

## CC[C@H](C)[C@H](NC(=O)[C@H](CO)NC(=O)[C@@H](NC(=O)[C@H](CS)NC(=O)[C@@H](NC(=O)[C@H](CS)NC(=O)[C@H](CCCNC(=N)N)NC(=O)[C@@H](NC(=O)[C@@H](NC(=O)[C@H](CCCNC(=N)N)NC(=O)[C@H](CO)NC(=O)[C@H](CC(C)C)NC(=O)[C@@H]1CCCN1C(=O)[C@@H](N)C(C)C)[C@@H](C)O)C(C)C)[C@@H](C)O)[C@@H](C)CC)C(=O)O [Peptide P1, VPLSRTVRCTCISI] (H-VPLSRTVRCTCISI-OH; N-terminus and C-terminus assumed)
MRSA
  killing of bacteria: 99.0-99.9%
[1]
  solubility: experienced solubility issues at higher concentrations
N. gonorrhoeae
  killing of bacteria: 99.0-99.9%
MDR Enterobacter cloacae
  killing of bacteria: 99.0-99.9%
MDR S. Typhi [2]
  killing of bacteria: 99.0-99.9%
CRE K. pneumoniae [3]; CRE, 2 h, 5.6 μM
  killing of bacteria: 99.0-99.9%
VRE
  killing of bacteria: 99.0-99.9%
MDR A. baumannii
  killing of bacteria: 99.0-99.9%
MDR P. aeruginosa
  killing of bacteria: 99.0-99.9%
MDR S. flexneri; MDR, 2 h, 2.8 μM
  killing of bacteria: 99.0-99.9%
B. anthracis
  killing of bacteria: 99.0-99.9%

## ATVRCTCI (Artificially synthesized antibacterial peptide or conjugate) [SEQ ID NO: 25, alanine scan variant of Peptide L8, position 1]
CRE K. pneumoniae [4]; 50 μM, RPMI/HEPES
  function of alanine scan variants: still functional

## CSVPTITCRVRLIS (Artificially synthesized antibacterial peptide or conjugate) [Peptide P1scram]
CRE K. pneumoniae [3]; 2.8 μM peptide, FIG. 6
  survival of bacteria following exposure (killing): did not kill bacteria
MDR S. flexneri; 2.8 μM peptide, FIG. 6
  survival of bacteria following exposure (killing): did not kill bacteria

## KNLLKAVSKERSKRSP (Artificially synthesized antibacterial peptide or conjugate) [SEQ ID NO: 12, 16 amino acid core, truncated version of Peptide P9]
[5]
  retention of the activities of Peptide P9 after truncation: retains the activities of Peptide P9

## L8-L8-L8: three copies of Peptide L8 concatemerized in head-to-tail configuration (RTVRCTCIRTVRCTCIRTVRCTCI; Artificially synthesized antibacterial peptide or conjugate) [Peptide L8-L8-L8]
CRE K. pneumoniae [4]; 50 μM, RPMI/HEPES
  bactericidal activity versus negative control Peptide P5: killed CRE K. pneumoniae statistically significantly more effectively than Peptide P5

## LSRTVRCTCISI (Artificially synthesized antibacterial peptide or conjugate) [Peptide ΔVP, truncated Peptide P1 variant lacking the first two amino acids]
CRE K. pneumoniae [4]; 50 μM, RPMI/HEPES
  bactericidal activity versus negative control Peptide P5: statistically significant differences
MDR S. Typhi [6]
  bactericidal activity versus negative control Peptide P5: statistically significant differences
CD45+/CD3+ T lymphocytes
  immunomodulatory activity: reduced or absent immunomodulatory activity

## PESKAIK(pA)LLK(pA)VSKERSKRSP (PESKAIK[ξαMeGly(pent-4-enyl)]LLK[ξαMeGly(pent-4-enyl)]VSKERSKRSP) [alkene-modified peptide, Peptide P9 variant with 2-(4-pentenyl)alanine at amino acids 8 and 12]
CRE K. pneumoniae [4]; 50 μM, RPMI/HEPES, 2 hours (FIG. 20)
  activity of modified Peptide P9 variants relative to Peptide P9: increased activity

## PESKAIKNLLKAVSKERSKRSP [Peptide P9]
N. gonorrhoeae
  killing of bacteria: 99.0-99.9%
CRE K. pneumoniae [4]; 10 mM KPB/1% TSB, 2 hours at 37° C., FIG. 10
  activity in hypotonic buffer: had activity
CRE K. pneumoniae [4]; RPMI/HEPES, 2 hours at 37° C., FIG. 10
  activity in RPMI (normosaline): lost activity

## PESKAIKNLLKAVSKERSKRSPGGGVPLSRTVRCTCISI (Artificially synthesized antibacterial peptide or conjugate) [Peptide P59, Peptide P9 conjugated to Peptide P1 via a tri-glycine linker]
[7]
  spore germination (numbers of bacilli): reduced spore germination

## RAVRCTCI (Artificially synthesized antibacterial peptide or conjugate) [SEQ ID NO: 26, alanine scan variant of Peptide L8, position 2]
CRE K. pneumoniae [4]; 50 μM, RPMI/HEPES
  function of alanine scan variants: still functional

## RTVRCTCI [Peptide D8]
Trypsin protease
  resistance to proteolytic degradation: resistant to proteolytic degradation
CRE K. pneumoniae [4]; 50 μM peptide pretreated with trypsin (200:1 molar ratio) for 2 hours
  antimicrobial activity after incubation with trypsin: retaining antimicrobial activity
CRE K. pneumoniae [4]; 50 μM, RPMI/HEPES
  bactericidal activity versus negative control Peptide P5: statistically significant differences
MDR S. Typhi [6]
  bactericidal activity versus negative control Peptide P5: statistically significant differences
K. pneumoniae ATCC 43816; 10 μl of 1.2% peptide in saline topically, 4 hours post-infection then twice per day for 4 days, versus saline
  survival (Kaplan-Meier) of infected mice: statistically significant increase in survival
K. pneumoniae ATCC 43816; same treatment, day 14 post-infection
  bacterial burden of wound swabs on LB agar: No bacterial growth was observed
K. pneumoniae ATCC 43816; same treatment, through day 21
  wound status over the course of infection: bacterial infection was resolved and healing occurred
[7]
  spore germination (numbers of bacilli): reduced spore germination

## RTVRCTCI [Peptide L8]
CRE K. pneumoniae [4]; 50 μM, RPMI/HEPES
  bactericidal activity versus negative control Peptide P5: killed CRE K. pneumoniae statistically significantly more effectively than Peptide P5

## VPLSRTVRTVRCTCISIGGGPESKAIKNLLKAVSKERSKRSP [Peptide P55]
CRE K. pneumoniae [4]; 50 μM, RPMI/HEPES
  bactericidal activity versus negative control Peptide P5: statistically significant differences
MDR S. Typhi [6]
  bactericidal activity versus negative control Peptide P5: statistically significant differences
